Measured values taken from US20230279021A1, “POLYMORPHS OF A GABAA ALPHA5 AGONIST AND METHODS OF USING IN THE TREATMENT OF COGNITIVE IMPAIRMENT” (AGENEBIO, INC., priority 2020, published 2023).
Entries after “also recorded” stand apart in the source; their conditions may differ.

Legend:
[1] = Dynamic vapor sorption (DVS) hygroscopicity; type: physicochemical; conditions: for hygroscopicity (DVS isotherm): 5% to 95% RH; for form of material recovered from the DVS experiment by XRPD: post DVS
Method: Dynamic vapor sorption data was collected on a Surface Measurement System DVS Intrinsic instrument. The samples were not dried prior to analysis. Sorption and desorption data were collected over a range from 5% to 95% RH in 10% RH increments under a nitrogen purge. The equilibrium criteria used for the analyses were 0.001 dm/dt weight change in 5 minutes with a minimum step time of 30 minutes and maximum equilibration time of 180 minutes with a 3-minute data logging interval. Data were not corrected for the initial moisture content of the sample. The samples were identified as having low, limited or significant hygroscopicity based on the definitions in the below table.

[2] = Solid-state stability of crystalline forms on storage or heating (XRPD); type: physicochemical
Method: XRPD patterns were collected with a PANalytical X'Pert PRO MPD or a PANalytical Empyrean diffractometer using an incident beam of Cu radiation produced using an Optix long, fine-focus source. An elliptically graded multilayer mirror was used to focus Cu Kα X-rays through the specimen and onto the detector. Prior to the analysis, a silicon specimen (NIST SRM 640e) was analyzed to verify the observed position of the Si 111 peak is consistent with the NIST-certified position. A specimen of the sample was sandwiched between 3-μm-thick films and analyzed in transmission geometry. A beam-stop, short antiscatter extension, and antiscatter knife edge were used to minimize the background generated by air. Soller slits for the incident and diffracted beams were used to minimize broadening from axial divergence. Diffraction patterns were collected using a scanning position-sensitive detector (X'Celerator) located 240 mm from the specimen and Data Collector software v. 5.5. […] All images have the instrument labeled as X'Pert PRO MPD regardless of the instrument used.

[3] = Thermal decomposition by DSC; type: physicochemical; conditions: 10° C./min
Method: DSC was performed using a Mettler-Toledo DSC3+ differential scanning calorimeter. A tau lag adjustment is performed with indium, tin, and zinc. The temperature and enthalpy are adjusted with octane, phenyl salicylate, indium, tin and zinc. The adjustment is then verified with octane, phenyl salicylate, indium, tin, and zinc. The sample was placed into a hermetically sealed aluminum DSC pan, the weight was accurately recorded, and the sample was inserted into the DSC cell. A weighed aluminum pan configured as the sample pan was placed on the reference side of the cell. The pan lid was pierced prior to sample analysis. The samples were analyzed from −25° C. to 250° C. at 10° C./min.

[4] = Competitive interconversion slurry experiments (relative thermodynamic stability of crystalline forms); type: physicochemical; conditions: solvent-mediated interconversion slurries, ambient temperature (Form E also 55° C. and 77° C.)
Method: Interconversion experiments were performed to identify the most thermodynamically stable anhydrous form of Compound 1 (Table 9). […] The choice of solvent affects the kinetics of polymorph conversion and not the thermodynamic relationship between polymorphic forms.
Various combinations of Forms B, E, F, and Material D were slurried with Form A at ambient and elevated temperatures (for experiments involving Form E). Different solvent systems were used and included a variety of water activities. Saturated solutions were generated and then added to the mixtures composed of approximately equivalent quantities of the forms. The mixtures were slurried for a particular duration of time and the solids harvested and analyzed by XRPD.

[5] = pKa of Compound 1 free base; type: physicochemical
[6] = tested on: aged-impaired rats; assay: Radial Arm Maze behavioral task, acute PO treatment; type: in vivo, Long-Evans rats; conditions: 10 mg/kg PO, 5-hr retention delay, compared to vehicle control
Method: (§1) Aged, male Long-Evans rats were obtained at 9 months of age from Charles River Laboratories (Raleigh, N.C.) and housed in a vivarium at The Johns Hopkins University until background behavioral assessment in a water maze at 24 months of age. Young rats obtained from the same source were housed in the same vivarium and were included in the background assessment at 6 months of age but were not used for drug testing in a radial arm maze task. All rats were individually housed at 25° C. and maintained on a 12 h light/dark cycle. Food and water were provided ad libitum unless noted otherwise. The rats were examined for health and pathogen-free status throughout the experiments, as well as necropsies at the time of killing. All procedures were in accordance with NIH guidelines using protocols approved by the Institutional Animal Care and Use Committee at The Johns Hopkins University.
All rats were screened in a standardized assessment of spatial cognition before the commencement of drug studies. The background assessment used a well-established Morris water maze protocol as described in detail elsewhere (Gallagher et al, 1993). Briefly, the rats were trained for 8 days (three trials per day) to locate a camouflaged escape platform that remained at the same location throughout training in a water maze. […]

[7] = tested on: aged-impaired rats; assay: Morris Water Maze behavioral task, acute and chronic IP treatment; type: in vivo, Long-Evans rats; conditions: 10 mg/kg IP, compared to vehicle control
Method: as §1
All rats were screened in a standardized assessment of spatial cognition before the commencement of drug studies. […]
Rats were trained and tested in a novel water maze environment to assess the effect of the treatments. […] An hour after the last training trial, rats were given a probe test in the absence of the escape platform (free swim) to assess the memory of the platform location as measured by time spent searching at the target location. […]

COCc1nnc2n1Cc1c(C#Cc3cnc(OC)s3)ncn1-c1ccc(Cl)cc1-2 [Form F]
hygroscopicity (DVS isotherm) [1]: limited hygroscopicity
weight gain ([1]; DVS, from 5-95% RH): 1.8%
weight loss upon desorption ([1]; DVS, significant hysteresis): 1.5%
form of material recovered from the DVS experiment by XRPD [1]: still Form F
stability under vacuum ([2]; 5 days under vacuum at ambient temperature): unchanged
stability upon exposure to 100° C. ([2]; exposure to 100° C. (several minutes, XRPD)): dehydrate; also recorded: loss of crystallinity
DSC exotherms following dehydration endotherm (decomposition upon dehydration) [3]: above 120 °C

COCc1nnc2n1Cc1c(C#Cc3cnc(OC)s3)ncn1-c1ccc(Cl)cc1-2 [Form C]
stability under ambient conditions ([2]; 9 weeks under ambient conditions): unchanged
stability upon overnight exposure to 80° C. ([2]; overnight exposure to 80° C.): desolvate to Form B
DSC exotherm due to decomposition, onset [3]: 190 °C

COCc1nnc2n1Cc1c(C#Cc3cnc(OC)s3)ncn1-c1ccc(Cl)cc1-2 [Material D]
relative thermodynamic stability [4]: metastable relative to Form A
stability on ambient storage (XRPD) ([2]; 7 weeks of ambient storage, mixture with Form A): still remained
DSC exotherm due to decomposition, onset [3]: ~174 °C

COCc1nnc2n1Cc1c(C#Cc3cnc(OC)s3)ncn1-c1ccc(Cl)cc1-2 [Form B]
relative thermodynamic stability [4]: metastable relative to Form A
DSC exotherm due to decomposition, onset [3]: about 190 °C

COCc1nnc2n1Cc1c(C#Cc3cnc(OC)s3)ncn1-c1ccc(Cl)cc1-2 [Compound 1, 5-((3-chloro-7-(methoxymethyl)-9H-benzo[f]imidazo[1,5-a][1,2,4]triazolo[4,3-d][1,4]diazepin-10-yl)ethynyl)-2-methoxythiazole]
pKa [5]: 1.16 ± 0.04
number of errors in radial arm maze retention test [6]: fewer errors
time spent in target quadrant of the Morris Water Maze [7]: more time in the target quadrant

COCc1nnc2n1Cc1c(C#Cc3cnc(OC)s3)ncn1-c1ccc(Cl)cc1-2 [Form A]
relative thermodynamic stability [4]: more thermodynamically stable than Form B and Material D at ambient temperature and more thermodynamically stable than Form E at ambient temperature, 55° C., and 77 °C
hygroscopicity (DVS isotherm) [1]: limited hygroscopicity; also recorded: low hygroscopicity
weight change through the sorption/desorption cycle ([1]; DVS, no hysteresis): ~0.3%
form of material recovered from the DVS experiment by XRPD [1]: same as the starting material
DSC exotherm due to decomposition, onset [3]: about 207 °C

COCc1nnc2n1Cc1c(C#Cc3cnc(OC)s3)ncn1-c1ccc(Cl)cc1-2 [Form E]
relative thermodynamic stability [4]: metastable relative to Form A
DSC exotherm due to decomposition, onset [3]: ~201 °C
